Source: patent EP4467141A1, “PYRAZOLO-QUINOLINES AS SELECTIVE INHIBITORS OF GENOTOXIC STRESS-INDUCED IKK/NF- KB PATHWAYS FOR CANCER THERAPY” (Max-Delbrück-Centrum für Molekulare Medizin in der …, priority 2023, dated 2024)

Key:
Assay in all cases: Kinase panel study
Type in all cases: biochemical
Details in all cases: read-out: Percentage of inhibition; for inhibition at 1 µM: 1000nM; for inhibition at 10 µM: 10000nM
AMPK (A1/B2/G3) = biological target: T1, AMPK (A1/B2/G3) (Homo sapiens, UniProt Q13131)
T1 construct: purchased Thermo Fisher Scientific
Procedure, shortened: (§1)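 Outsourced panel screen. Format: ZLyte or Adapta, run per the manufacturer's procedures. Read-out: inhibition (%) at a single dose of 10 µM or 1 µM; IC50s also generated.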

CSNK1A1 (CK1 alpha 1) = biological target: T2, CSNK1A1 (CK1 alpha 1) (Homo sapiens, UniProt P48729)
T2 construct: purchased Thermo Fisher Scientific
Procedure, shortened: as §1

HIPK4 = biological target: T3, HIPK4 (Homo sapiens, UniProt Q8NE63)
T3 construct: purchased Thermo Fisher Scientific
T3 sequence (Q8NE63 1-616): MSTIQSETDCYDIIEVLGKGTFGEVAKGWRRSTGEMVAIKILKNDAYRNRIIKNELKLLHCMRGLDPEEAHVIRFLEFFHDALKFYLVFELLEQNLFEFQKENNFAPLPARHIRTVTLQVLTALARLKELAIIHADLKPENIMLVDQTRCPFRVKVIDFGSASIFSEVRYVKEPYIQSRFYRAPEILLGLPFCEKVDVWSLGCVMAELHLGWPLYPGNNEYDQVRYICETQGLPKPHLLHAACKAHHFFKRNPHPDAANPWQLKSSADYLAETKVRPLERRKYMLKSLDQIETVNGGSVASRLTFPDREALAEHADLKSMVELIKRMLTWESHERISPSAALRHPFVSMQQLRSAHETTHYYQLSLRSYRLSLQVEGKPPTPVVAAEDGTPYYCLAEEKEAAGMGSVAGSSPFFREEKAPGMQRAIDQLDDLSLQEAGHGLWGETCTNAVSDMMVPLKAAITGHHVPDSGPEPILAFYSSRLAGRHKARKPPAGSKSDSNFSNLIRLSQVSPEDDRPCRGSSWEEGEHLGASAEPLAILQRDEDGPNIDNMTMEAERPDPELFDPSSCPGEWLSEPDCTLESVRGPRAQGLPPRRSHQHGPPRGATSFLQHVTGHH
Procedure, shortened: as §1

AMPK (A2/B1/G2) = biological target: T4, AMPK (A2/B1/G2) (Homo sapiens, UniProt P54646)
T4 construct: purchased Thermo Fisher Scientific
Procedure, shortened: as §1

ABL1 T315I = biological target: T5, ABL1 T315I (Homo sapiens, UniProt P00519, T315I)
T5 construct: purchased Thermo Fisher Scientific
Procedure, shortened: as §1

FGFR2 = biological target: T6, FGFR2 (Homo sapiens, UniProt P21802)
T6 construct: purchased Thermo Fisher Scientific
T6 sequence (P21802 22-821): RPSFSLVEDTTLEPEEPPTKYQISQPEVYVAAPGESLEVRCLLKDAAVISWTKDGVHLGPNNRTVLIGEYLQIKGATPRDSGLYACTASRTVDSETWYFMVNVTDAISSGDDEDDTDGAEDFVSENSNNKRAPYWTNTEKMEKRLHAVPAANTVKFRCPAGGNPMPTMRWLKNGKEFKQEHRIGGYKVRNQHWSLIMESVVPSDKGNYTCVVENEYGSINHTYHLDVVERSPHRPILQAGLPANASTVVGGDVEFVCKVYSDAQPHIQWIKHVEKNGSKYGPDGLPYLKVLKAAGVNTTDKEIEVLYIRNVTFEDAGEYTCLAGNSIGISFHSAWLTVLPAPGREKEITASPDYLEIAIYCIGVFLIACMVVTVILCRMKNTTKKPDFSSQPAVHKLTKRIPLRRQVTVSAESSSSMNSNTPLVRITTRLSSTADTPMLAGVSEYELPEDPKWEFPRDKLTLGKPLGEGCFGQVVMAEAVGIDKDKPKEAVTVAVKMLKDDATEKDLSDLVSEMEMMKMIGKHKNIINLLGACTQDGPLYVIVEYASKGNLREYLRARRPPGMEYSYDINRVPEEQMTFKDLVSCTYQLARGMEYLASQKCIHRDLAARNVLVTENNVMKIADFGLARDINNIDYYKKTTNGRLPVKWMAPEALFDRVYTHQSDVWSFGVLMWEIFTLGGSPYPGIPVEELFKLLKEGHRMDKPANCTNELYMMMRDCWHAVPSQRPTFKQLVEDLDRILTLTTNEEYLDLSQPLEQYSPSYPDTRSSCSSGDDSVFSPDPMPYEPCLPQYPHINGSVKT
Procedure, shortened: as §1

MAPKAPK3 = biological target: T7, MAPKAPK3 (Homo sapiens, UniProt Q16644)
T7 construct: purchased Thermo Fisher Scientific
T7 sequence (Q16644 whole entry): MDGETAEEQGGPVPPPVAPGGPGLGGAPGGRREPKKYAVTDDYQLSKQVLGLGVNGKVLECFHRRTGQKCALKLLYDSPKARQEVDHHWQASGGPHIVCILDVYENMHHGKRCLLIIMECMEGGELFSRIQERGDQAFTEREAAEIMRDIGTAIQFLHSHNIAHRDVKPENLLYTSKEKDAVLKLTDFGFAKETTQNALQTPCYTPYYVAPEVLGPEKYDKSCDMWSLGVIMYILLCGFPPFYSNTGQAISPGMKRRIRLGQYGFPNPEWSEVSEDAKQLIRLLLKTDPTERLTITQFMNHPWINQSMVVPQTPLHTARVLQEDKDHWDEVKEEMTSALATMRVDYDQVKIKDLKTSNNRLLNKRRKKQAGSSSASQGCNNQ
Procedure, shortened: as §1

NTRK2 (TRKB) = biological target: T8, NTRK2 (TRKB) (Homo sapiens, UniProt Q16620)
T8 construct: purchased Thermo Fisher Scientific
T8 sequence (Q16620 32-822): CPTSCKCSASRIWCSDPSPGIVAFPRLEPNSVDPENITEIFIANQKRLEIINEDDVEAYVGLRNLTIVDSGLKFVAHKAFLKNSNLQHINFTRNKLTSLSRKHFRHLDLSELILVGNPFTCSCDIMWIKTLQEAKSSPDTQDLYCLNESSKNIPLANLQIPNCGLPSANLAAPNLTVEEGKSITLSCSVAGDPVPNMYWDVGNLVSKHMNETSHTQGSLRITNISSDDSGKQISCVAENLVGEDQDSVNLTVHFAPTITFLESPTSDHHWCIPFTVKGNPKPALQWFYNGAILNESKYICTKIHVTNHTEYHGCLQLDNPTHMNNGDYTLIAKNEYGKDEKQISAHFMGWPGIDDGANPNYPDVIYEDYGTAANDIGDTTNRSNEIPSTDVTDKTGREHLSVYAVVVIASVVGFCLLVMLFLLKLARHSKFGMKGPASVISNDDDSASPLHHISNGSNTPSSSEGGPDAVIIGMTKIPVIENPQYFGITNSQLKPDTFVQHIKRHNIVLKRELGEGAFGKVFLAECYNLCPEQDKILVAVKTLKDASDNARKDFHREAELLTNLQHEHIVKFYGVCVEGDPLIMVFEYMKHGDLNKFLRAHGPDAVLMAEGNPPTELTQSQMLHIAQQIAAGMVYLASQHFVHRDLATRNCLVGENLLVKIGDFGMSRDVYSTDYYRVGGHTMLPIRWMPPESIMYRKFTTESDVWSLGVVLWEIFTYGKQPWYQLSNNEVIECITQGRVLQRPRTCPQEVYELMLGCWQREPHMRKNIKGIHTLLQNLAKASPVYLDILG
Procedure, shortened: as §1

CDC42 BPB (MRCKB) = biological target: T9, CDC42 BPB (MRCKB) (Homo sapiens, UniProt Q9Y5S2)
T9 construct: purchased Thermo Fisher Scientific
T9 sequence (Q9Y5S2 whole entry): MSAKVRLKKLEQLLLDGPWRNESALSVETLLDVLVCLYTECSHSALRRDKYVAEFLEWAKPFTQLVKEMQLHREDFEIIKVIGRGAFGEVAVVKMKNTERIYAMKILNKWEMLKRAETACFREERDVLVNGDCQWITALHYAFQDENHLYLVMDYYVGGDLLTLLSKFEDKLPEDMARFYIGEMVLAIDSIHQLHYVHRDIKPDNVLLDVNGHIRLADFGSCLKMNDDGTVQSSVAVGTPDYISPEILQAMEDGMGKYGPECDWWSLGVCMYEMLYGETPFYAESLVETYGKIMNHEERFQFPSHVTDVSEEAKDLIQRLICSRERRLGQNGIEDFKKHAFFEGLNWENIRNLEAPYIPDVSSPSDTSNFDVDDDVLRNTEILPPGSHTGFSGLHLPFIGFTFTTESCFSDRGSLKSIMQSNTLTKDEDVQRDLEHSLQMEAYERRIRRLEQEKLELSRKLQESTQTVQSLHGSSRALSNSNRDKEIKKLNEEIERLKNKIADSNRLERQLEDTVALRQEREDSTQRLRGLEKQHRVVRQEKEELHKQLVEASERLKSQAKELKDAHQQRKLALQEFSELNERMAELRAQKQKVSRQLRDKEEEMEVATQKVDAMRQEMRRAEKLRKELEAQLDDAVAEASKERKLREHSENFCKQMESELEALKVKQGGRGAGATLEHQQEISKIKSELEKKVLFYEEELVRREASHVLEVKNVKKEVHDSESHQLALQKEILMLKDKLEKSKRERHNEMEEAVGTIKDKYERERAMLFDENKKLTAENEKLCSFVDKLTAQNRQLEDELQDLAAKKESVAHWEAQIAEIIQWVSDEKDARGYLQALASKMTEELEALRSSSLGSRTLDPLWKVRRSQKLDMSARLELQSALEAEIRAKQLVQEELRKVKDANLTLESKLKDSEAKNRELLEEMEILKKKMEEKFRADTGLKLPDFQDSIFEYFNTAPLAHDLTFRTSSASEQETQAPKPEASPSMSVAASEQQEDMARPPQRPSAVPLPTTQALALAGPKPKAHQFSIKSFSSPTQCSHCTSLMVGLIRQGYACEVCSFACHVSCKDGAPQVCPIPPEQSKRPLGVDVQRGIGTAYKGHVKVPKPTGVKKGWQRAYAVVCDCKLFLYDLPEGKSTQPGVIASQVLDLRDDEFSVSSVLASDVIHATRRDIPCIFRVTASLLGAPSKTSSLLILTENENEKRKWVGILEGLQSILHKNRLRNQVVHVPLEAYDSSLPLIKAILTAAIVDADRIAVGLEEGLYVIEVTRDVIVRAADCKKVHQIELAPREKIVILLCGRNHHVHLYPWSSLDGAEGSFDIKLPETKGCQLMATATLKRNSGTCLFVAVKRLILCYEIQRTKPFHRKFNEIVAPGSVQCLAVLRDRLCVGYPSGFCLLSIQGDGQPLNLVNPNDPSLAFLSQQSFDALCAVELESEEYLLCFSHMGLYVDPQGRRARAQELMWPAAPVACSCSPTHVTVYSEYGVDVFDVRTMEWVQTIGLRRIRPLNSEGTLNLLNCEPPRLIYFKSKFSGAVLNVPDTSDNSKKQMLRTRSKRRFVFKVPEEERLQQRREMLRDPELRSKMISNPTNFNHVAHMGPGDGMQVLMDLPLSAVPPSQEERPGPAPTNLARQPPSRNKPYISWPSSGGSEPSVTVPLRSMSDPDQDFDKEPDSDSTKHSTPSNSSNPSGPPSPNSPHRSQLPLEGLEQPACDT
Procedure, shortened: as §1

NTRK3 (TRKC) = biological target: T10, NTRK3 (TRKC) (Homo sapiens, UniProt Q16288)
T10 construct: purchased Thermo Fisher Scientific
Procedure, shortened: as §1

GRK6 = biological target: T11, GRK6 (Homo sapiens, UniProt P43250)
T11 construct: purchased Thermo Fisher Scientific
Procedure, shortened: as §1

RET = biological target: T12, RET (Homo sapiens, UniProt P07949)
T12 construct: purchased Thermo Fisher Scientific
T12 sequence (P07949 29-1114): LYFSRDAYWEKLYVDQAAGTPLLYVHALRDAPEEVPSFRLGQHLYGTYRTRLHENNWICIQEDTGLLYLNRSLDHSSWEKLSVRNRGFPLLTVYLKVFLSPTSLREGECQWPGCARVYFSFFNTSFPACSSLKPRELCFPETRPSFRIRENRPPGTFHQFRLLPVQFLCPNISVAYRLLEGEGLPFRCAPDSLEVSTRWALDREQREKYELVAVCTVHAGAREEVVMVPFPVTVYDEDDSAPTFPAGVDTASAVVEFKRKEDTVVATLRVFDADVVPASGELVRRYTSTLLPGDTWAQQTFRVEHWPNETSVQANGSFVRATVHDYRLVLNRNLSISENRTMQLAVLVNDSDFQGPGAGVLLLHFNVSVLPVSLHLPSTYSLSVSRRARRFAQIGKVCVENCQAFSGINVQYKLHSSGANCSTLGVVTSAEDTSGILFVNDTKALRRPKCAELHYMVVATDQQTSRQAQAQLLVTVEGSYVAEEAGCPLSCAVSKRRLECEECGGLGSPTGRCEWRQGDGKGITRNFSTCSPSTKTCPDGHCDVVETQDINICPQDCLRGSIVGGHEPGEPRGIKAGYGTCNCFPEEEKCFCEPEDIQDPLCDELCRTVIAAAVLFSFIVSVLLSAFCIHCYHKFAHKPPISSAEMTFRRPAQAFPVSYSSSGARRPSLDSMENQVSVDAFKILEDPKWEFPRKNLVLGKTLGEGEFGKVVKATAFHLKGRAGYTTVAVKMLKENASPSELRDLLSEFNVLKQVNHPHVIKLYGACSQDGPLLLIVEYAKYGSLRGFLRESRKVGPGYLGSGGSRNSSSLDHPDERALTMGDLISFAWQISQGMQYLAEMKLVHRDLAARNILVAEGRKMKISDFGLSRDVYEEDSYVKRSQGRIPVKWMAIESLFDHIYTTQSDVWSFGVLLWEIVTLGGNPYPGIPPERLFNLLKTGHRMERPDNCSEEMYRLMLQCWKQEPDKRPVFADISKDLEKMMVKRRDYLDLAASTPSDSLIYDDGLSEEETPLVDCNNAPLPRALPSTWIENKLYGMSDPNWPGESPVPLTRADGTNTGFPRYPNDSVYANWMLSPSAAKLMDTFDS
Procedure, shortened: as §1

CSNK1A1L = biological target: T13, CSNK1A1L (Homo sapiens, UniProt Q8N752)
T13 construct: purchased Thermo Fisher Scientific
T13 sequence (Q8N752 1-337): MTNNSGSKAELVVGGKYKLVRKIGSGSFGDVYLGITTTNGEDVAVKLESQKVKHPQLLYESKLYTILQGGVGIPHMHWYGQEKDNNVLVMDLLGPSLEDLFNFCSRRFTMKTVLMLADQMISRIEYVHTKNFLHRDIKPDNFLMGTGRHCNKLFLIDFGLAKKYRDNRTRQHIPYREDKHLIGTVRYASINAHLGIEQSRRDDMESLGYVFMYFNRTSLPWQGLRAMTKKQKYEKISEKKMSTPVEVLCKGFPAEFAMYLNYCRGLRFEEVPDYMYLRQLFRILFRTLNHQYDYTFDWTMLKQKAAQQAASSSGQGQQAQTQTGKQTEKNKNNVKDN
Procedure, shortened: as §1

CAMK1 (CaMK1) = biological target: T14, CAMK1 (CaMK1) (Homo sapiens, UniProt Q14012)
T14 construct: purchased Thermo Fisher Scientific
Procedure, shortened: as §1

Compound | inhibition at 1 µM (AMPK (A1/B2/G3)) | inhibition at 10 µM (AMPK (A1/B2/G3)) | inhibition at 1 µM (CSNK1A1 (CK1 alpha 1)) | inhibition at 10 µM (CSNK1A1 (CK1 alpha 1)) | inhibition at 1 µM (HIPK4) | inhibition at 10 µM (HIPK4) | inhibition at 1 µM (AMPK (A2/B1/G2)) | inhibition at 10 µM (AMPK (A2/B1/G2)) | inhibition at 1 µM (ABL1 T315I) | inhibition at 10 µM (ABL1 T315I) | inhibition at 1 µM (FGFR2) | inhibition at 10 µM (FGFR2) | inhibition at 1 µM (MAPKAPK3) | inhibition at 10 µM (MAPKAPK3) | inhibition at 1 µM (NTRK2 (TRKB)) | inhibition at 10 µM (NTRK2 (TRKB)) | inhibition at 1 µM (CDC42 BPB (MRCKB)) | inhibition at 10 µM (CDC42 BPB (MRCKB)) | inhibition at 1 µM (NTRK3 (TRKC)) | inhibition at 10 µM (NTRK3 (TRKC)) | further results
COc1ccc2c(c1OC)c(=O)n1c3ccc(O)cc3c3ccnc2c31 [MW01, 5-Hydroxy-10,11-dimethoxy-9H-benzo[c]indolo[3,2,1-ij][1,5]naphthyridin-9-one] | 3% | 19% | 5% | 17% | 42% | 62% | -12% | 10% | 9% | 34% | 13% | 11% | 8% | 24% | 35% | 68% | 0% | 5% | 42% | 66% | inhibition at 1 µM (GRK6): 0%; inhibition at 10 µM (GRK6): 5%; inhibition at 1 µM (RET): 15%; inhibition at 10 µM (RET): 34%; inhibition at 1 µM (CSNK1A1L): 1%; inhibition at 10 µM (CSNK1A1L): 11%; inhibition at 1 µM (CAMK1 (CaMK1)): -12%; inhibition at 10 µM (CAMK1 (CaMK1)): -2%
COc1ccc2cc3c(N)nn(C(=O)c4cccc(N(C)C)c4)c3nc2c1 [MW05, (3-Amino-7-methoxypyrazolo[3,4-b]quinolin-1-yl)-[3-(dimethylamino)phenyl]methanone] | 0% | -6% | 2% | 1% | 12% | 8% | -12% | -16% | 8% | 5% | 0% | -5% | 10% | 3% | 13% | 42% | 5% | -6% | 10% | 11% | inhibition at 1 µM (GRK6): 6%; inhibition at 10 µM (GRK6): 3%; inhibition at 1 µM (RET): 9%; inhibition at 10 µM (RET): 12%; inhibition at 1 µM (CSNK1A1L): 1%; inhibition at 10 µM (CSNK1A1L): 1%; inhibition at 1 µM (CAMK1 (CaMK1)): -11%; inhibition at 10 µM (CAMK1 (CaMK1)): -5%
